Series [1] concerns the target NAMPT (Mus musculus, UniProt Q99KQ4). Put plainly: NRH action in presence of NAMPT inhibitor FK866. It is filed as cell-based. To be noted: FK866, a NAMPT inhibitor.
Series [2] has as its system INS1-cells. As to the kind of experiment: NAD+ levels in INS1-cells after NRH treatment. It is filed as cell-based. The procedure:
(§1) The ability of NRH to potently increase NAD+ was tested as well in other cell type models.

The subject of series [3] is C2C12 myotubes. Put plainly: NAD+ levels in C2C12 myotubes after NRH treatment. It is filed as cell-based. The procedure: as §1
Series [4] addresses T1, adenosine kinase (AK) (Mus musculus, UniProt P55264).
T1 construct: endogenous in cells; host or cells: AML12 cells
As to the kind of experiment: NRH-induced NAD+ synthesis under adenosine kinase inhibition (5-IT, ABT-702). Format: cell-based. The protocol:
AML12 cells were treated with an adenosine kinase inhibitor (5-IT; […]) for 1 hour prior to NRH treatment at the doses indicated. Then, 1 hour later, acidic extracts were obtained to measure NAD^+ levels. All values in the figure are expressed as mean +/−SEM of 3 independent experiments. * indicates statistical difference at p<0.05 vs. the respective vehicle treated group.
Considering the molecular structure of NRH, we reasoned that an alternative nucleoside kinase could be responsible for the phosphorylation of NRH. Confirming this expectation, the adenosine kinase (AK) inhibitor 5-iodotubercidin (5-IT) fully ablated the action of NRH. […] Metabolomic analyses further confirmed that upon inhibition of AK, the generation of NMNH, NADH and NAD+ was fully blunted, even if NRH was effectively entering the cell.

Series [5] deals with NMNAT. Put plainly: NRH-induced NAD+ synthesis under NMNAT inhibition with gallotannin. It is filed as cell-based. An excerpt:
As a follow-up step, NMNAT enzymes could catalyze the transition from NMNH to NADH.

Series [6] is described as follows: Stability of NRH or NR spiked in isolated mouse plasma. Format: in vitro ADME. The source says:
Levels of NRH and other NAD-related metabolites in biological samples were obtained by using a cold liquid-liquid extraction using a mixture of methanol:water:chloroform in 5:3:5 (v/v), from which the polar phase was recovered for hydrophilic interaction ultra-high performance liquid chromatography mass spectrometry (UHPLC-MS) analysis. The UHPLC consisted of a binary pump, a cooled autosampler, and a column oven (DIONEX Ultimate 3000 UHPLC+ Focused, Thermo Scientific), connected to a triple quadrupole spectrometer (TSQ Vantage, Thermo Scientific) equipped with a heated electrospray ionisation (H-ESI) source. Of each sample, 2 μL were injected into the analytical column (2.1 mm×150 mm, 5 μm pore size, 200 Å HILICON iHILIC®-Fusion(P)), guarded by a pre-column (2.1 mm×20 mm, 200 Å HILICON iHILIC®-Fusion(P) Guard Kit) operating at 35° C. The mobile phase (10 mM ammonium acetate at pH 9, A, and acetonitrile, B) was pumped at 0.25 mL/min flow rate over a linear gradient of decreasing organic solvent (0.5-16 min, 90-25% B), followed by re-equilibration for a total run time of 30 min. The MS operated in positive mode at 3500 V with multiple reaction monitoring (MRM). The software Xcalibur v4.1.31.9 (Thermo Scientific) was used for instrument control, data acquisition and processing. Retention time and mass detection was confirmed by authentic standards.
NR degradation to NAM has been proposed as a limitation for its pharmacological efficacy. To evaluate whether NRH was also susceptible to degradation to NAM, we spiked NRH or NR in isolated mouse plasma. […] We also tested the stability of NRH in other matrixes.

Series [7] concerns equilibrative nucleoside transporters (ENTs). Put plainly: NRH action as NAD+ precursor under ENT blockage with NBTI. Format: cell-based. The following applies: in the presence of S-(4-nitrobenzyl)-6-thioinosine (NBTI). An excerpt: In order to understand the exact path by which NRH synthesizes NAD+, we initially evaluated whether NRH, could be transported into the cell by equilibrative nucleoside transporters (ENTs).

Series [8] concerns NAD+ levels in liver, skeletal muscle and kidney. Put plainly: Tissue NAD+ levels after oral gavage of NR or NRH. It is filed as in vivo, C57BI/6NTac mice. The protocol: 8 week-old C57BI/6NTac mice were orally gavaged with either saline (as vehicle), NR (500 mg/kg) or NRH (500 mg/kg). After 1 hour, liver, skeletal muscle and kidney NAD^+ levels were evaluated. All results are expressed as mean +/−SEM of n=5 mice per group. * indicates statistical difference at p<0.05 vs. vs. saline-treated mice. # indicates statistical difference at p<0.05 vs. NR treated mice.
Oral administration of NRH led to very similar results to those observed after IP administration. […] In contrast, NR levels were undetectable at 1 h after NR administration. As expected, NR treatment led to large increases in circulating NAM, which where ˜4-fold higher than those observed after NRH treatment.

Entries after “also recorded” stand apart in the source; their conditions may differ.

T1 sequence (P55264 whole entry): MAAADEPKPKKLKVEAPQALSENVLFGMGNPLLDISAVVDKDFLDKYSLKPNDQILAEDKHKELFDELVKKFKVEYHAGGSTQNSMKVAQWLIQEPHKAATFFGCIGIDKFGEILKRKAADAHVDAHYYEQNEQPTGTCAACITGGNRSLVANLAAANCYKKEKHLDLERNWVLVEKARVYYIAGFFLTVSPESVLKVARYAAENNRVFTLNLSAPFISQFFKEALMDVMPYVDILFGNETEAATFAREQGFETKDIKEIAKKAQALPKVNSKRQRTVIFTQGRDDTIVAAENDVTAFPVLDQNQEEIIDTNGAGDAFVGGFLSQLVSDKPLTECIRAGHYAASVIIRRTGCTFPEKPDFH
Chain of NAMPT (Q99KQ4 whole entry): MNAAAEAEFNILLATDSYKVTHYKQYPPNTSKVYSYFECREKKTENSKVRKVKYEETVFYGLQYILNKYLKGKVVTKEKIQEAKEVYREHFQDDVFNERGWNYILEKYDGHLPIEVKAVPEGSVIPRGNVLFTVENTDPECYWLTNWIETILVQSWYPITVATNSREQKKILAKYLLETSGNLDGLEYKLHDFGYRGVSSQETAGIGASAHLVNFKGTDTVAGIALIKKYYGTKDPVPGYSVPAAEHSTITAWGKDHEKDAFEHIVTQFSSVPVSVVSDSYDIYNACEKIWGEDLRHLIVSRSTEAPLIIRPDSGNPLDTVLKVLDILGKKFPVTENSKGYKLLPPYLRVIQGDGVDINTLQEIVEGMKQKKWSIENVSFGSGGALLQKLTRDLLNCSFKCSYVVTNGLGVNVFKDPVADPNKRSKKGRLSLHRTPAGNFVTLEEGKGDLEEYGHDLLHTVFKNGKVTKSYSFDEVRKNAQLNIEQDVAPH

With `NC(=O)C1=CN([C@@H]2O[C@H](CO)[C@@H](O)[C@H]2O)C=CC1` [NRH, dihydro-1-beta-D-ribofuranosyl-3-pyridinecarboxamide], the “dependence of NRH action on NAMPT” value in series [1] is given as “NAMPT-independent”. For the same molecule, the “NAD+ levels” value in series [2] and in series [3] was “highly elevated NAD+ levels” each time. Besides, in series [4] (5-IT treatment), the “formation of NR and NMN after NRH treatment with 5-IT” value was “prevented the formation of NR and NMN”. Moreover, in series [4] (AML12 cells, 5-IT 10 mM for 1 hour prior to NRH, NAD+ 1 hour later), the “action of NRH on NAD+ in presence of AK inhibitor 5-iodotubercidin (5-IT)” value is on record as “fully ablated; also recorded: adenosine kinase dependent path”. Further, the “generation of NMNH, NADH and NAD+ upon inhibition of AK” value in series [4] (metabolomic analyses) is given as “fully blunted”. The “NRH-mediated NAD+ synthesis in presence of AK inhibitor ABT-702” value in series [4] (second, structurally different AK inhibitor) is “role of AK in NRH-mediated NAD+ synthesis was confirmed”. The “NAD+ synthesis after NRH treatment in presence of gallotannin” value in series [5] (NRH at maximal doses (0.5 mM)) is “largely compromised NAD+ synthesis; also recorded: part of the NRH action remained”. The “NRH action in presence of gallotannin” value in series [5] (NRH at submaximal doses) is “totally blocked by gallotannin”. Moreover, the “NR production on incubation in isolated plasma” value in series [6] is “did not lead to NR production”. Moreover, the “capacity as extracellular NAD+ precursor under ENT blockage” value in series [7] was “largely lost its capacity as an extracellular NAD+ precursor; also recorded: a substantial action of NRH remained”. In addition, the “effect on hepatic NAD+ levels” value in series [8] (oral administration, compared with NR) was “more potent effect on hepatic NAD+ levels than NR”. For the same molecule, the “NAD+ precursor activity in liver, muscle and kidney” value in series [8] (oral gavage 500 mg/kg, after 1 hour (FIG. 5)) is “orally active NAD+ precursor in liver, muscle and kidney”.
